Experimental data from US7074743B1, “Herbicidal composition comprising 4-iodo-2-[3-(4-methoxy-6-methyl-1,3,5-triazin-2-yl)ureidosulfonyl]benzoic esters” (priority 1995, dated 2006).

How the values were obtained:
Format in all cases: in vivo
[1] = tested on: Triticum aestivum; assay: Damage to crop plant TRZAW, visual scoring vs untreated
Method: (§1) The examples given below were performed in the greenhouse and, in some cases, in field trials.
(§2) The herbicides, or combinations, were applied in cereals after the weeds had emerged naturally using plot sprayers. After application, the results, such as damage to the crop plants and effect on broad-leaved weeds/grass weeds were assessed by means of visual scoring. The herbicidal action was assessed qualitatively and quantitatively by comparing untreated and treated plots on the basis of the effect on plant growth and the development of chloroses and necroses down to the complete destruction of the weeds (0–100%). The application was effected when the crop plants and weeds were in the 2–4 leaf stage. The test was evaluated approximately 4 weeks after application.
(§3) In the greenhouse experiments, the crop plants and broadleaved weeds/grass weeds were grown in No. 13 pots and treated in the 2–4 leaf stage. The pots were subsequently placed in the greenhouse under good growth conditions (temperature, atmospheric humidity, water supply).
(§4) The assessments were carried out similarly to those in the field trials, i.e. visual scoring of the treated plants in comparison with untreated control variants. These assessments were carried out 3 weeks after applying the test preparations and their combinations. The experiments had been set up in two replications.

[2] = tested on: Apera spica venti; assay: Herbicidal action on APESV, visual scoring vs untreated, post-emergence 2-4 leaf stage; conditions: Table 1
Method: as §1, §2, §3, §4
(§5) To assess the combination effects, the activities of the individual components were added and compared with the activity of the mixtures in equal doses. It was frequently observed that the efficacies of the combinations exceeded the total of the individual activities.
(§6) In cases with less clear effects, the expected value was calculated using Colby's formula and compared with the empirically determined result. The calculated efficacy of a combination which is expected in theory is determined is using S.R. Colby's formula: “Calculation of synergistic and antagonistic responses of herbicide combinations”, Weeds 15 (1967), pages 20 to 22.
(§7) [formula] where • X=% damage caused by herbicide A at a rate of ×kg a.i./ha; • Y=% damage caused by herbicide B at a rate of y kg a.i./ha; • Z=% damage caused by a further herbicide C at a rate of z kg a.i./ha; • E=expected value, i.e. expected damage caused by herbicides A+B (or A+B+C) at x+y (or x+y+z) kg a.i./ha.
(§8) Synergistic effects were assumed to be when the empirical value exceeded the expected value. In the case of combinations with individual components with the same active substances, comparisons via the total formula were also possible.

[3] = tested on: Phalaris canariensis; assay: Herbicidal action on PHACA, visual scoring vs untreated, post-emergence 2-4 leaf stage (greenhouse / field trials)
Method: as §1, §2, §3, §4, §5, §6, §7, §8

[4] = tested on: Gallium aparine; assay: Herbicidal action on GALAP, visual scoring vs untreated, post-emergence 2-4 leaf stage; conditions: Table 11
Method: as §1, §2, §3, §4, §5, §6, §7, §8

[5] = tested on: Mercurialis annua; assay: Herbicidal action on MERAN, visual scoring vs untreated, post-emergence 2-4 leaf stage; conditions: Table 11
Method: as §1, §2, §3, §4, §5, §6, §7, §8

[6] = tested on: Avena fatua; assay: Herbicidal action on AVEFA, visual scoring vs untreated, post-emergence 2-4 leaf stage; conditions: Table 11
Method: as §1, §2, §3, §4, §5, §6, §7, §8

[7] = tested on: Lolium multiflorum; assay: Herbicidal action on LOLMU, visual scoring vs untreated, post-emergence 2-4 leaf stage
Method: as §1, §2, §3, §4, §5, §6, §7, §8

[8] = tested on: Zea mays; assay: Damage to crop plant ZEAMA, visual scoring vs untreated; conditions: Table 4
Method: as §1, §2, §3, §4

[9] = tested on: Echinochloa crus galli; assay: Herbicidal action on ECHCR, visual scoring vs untreated, post-emergence 2-4 leaf stage; conditions: Table 4
Method: as §1, §2, §3, §4, §5, §6, §7, §8

[10] = tested on: Secale cereale; assay: Damage to crop plant SECCW, visual scoring vs untreated; conditions: Table 6
Method: as §1, §2, §3, §4

[11] = tested on: Fallopia convolvulus; assay: Herbicidal action on FALCO, visual scoring vs untreated, post-emergence 2-4 leaf stage; conditions: Table 5
Method: as §1, §2, §3, §4, §5, §6, §7, §8

[12] = tested on: Centaurea cyanus; assay: Herbicidal action on CENCY, visual scoring vs untreated, post-emergence 2-4 leaf stage; conditions: Table 6
Method: as §1, §2, §3, §4, §5, §6, §7, §8

Q: With `COC(=O)C(C)Oc1ccc(Oc2ccc(Cl)cc2Cl)cc1` (racemic) [B3), diclofop-methyl] as the molecule, how does the TRZAW % damage ([1]; Table 1, 225 g of a.i./ha) read?
A: 0%

Q: What about the TRZAW % damage ([1]; Table 1, 450 g of a.i./ha) of the same molecule?
A: 0%

Q: And the TRZAW % damage ([1]; Table 1, 900 g of a.i./ha)?
A: 0%

Q: What about the APESV % control ([2]; 225 g of a.i./ha) of the same molecule?
A: 0%

Q: What about the APESV % control ([2]; 450 g of a.i./ha) of the same molecule?
A: 0%

Q: And the APESV % control ([2]; 900 g of a.i./ha)?
A: 8%

Q: What about the PHACA % control ([3]; Table 1, 225 g of a.i./ha) of the same molecule?
A: 0%

Q: What about the PHACA % control ([3]; Table 1, 450 g of a.i./ha) of the same molecule?
A: 0%

Q: And the PHACA % control ([3]; Table 1, 900 g of a.i./ha)?
A: 0%

Q: Which results are given for `CP(=O)(O)CC[C@@H](N)C(=O)O` (racemic) [B49), 4-[hydroxy(methyl)phosphinoyl]-DL-homoalanine]?
A: GALAP % control ([4]; 150 g of a.i./ha): 55%; GALAP % control ([4]; 300 g of a.i./ha): 73%; GALAP % control ([4]; 450 g of a.i./ha): 85%; MERAN % control ([5]; 150 g of a.i./ha): 65%; MERAN % control ([5]; 300 g of a.i./ha): 78%; MERAN % control ([5]; 450 g of a.i./ha): 90%; AVEFA % control ([6]; 150 g of a.i./ha): 60%; AVEFA % control ([6]; 300 g of a.i./ha): 70%; AVEFA % control ([6]; 450 g of a.i./ha): 80%

Q: `CC(C)c1ccc(NC(=O)N(C)C)cc1` [B2), 3-(4-isopropylphenyl)-1,1-dimethylurea] was tested. Which LOLMU % control ([7]; Table 3, 375 g of a.i./ha) did it give?
A: 0%

Q: And the LOLMU % control ([7]; Table 3, 750 g of a.i./ha)?
A: 0%

Q: And the LOLMU % control ([7]; Table 3, 1500 g of a.i./ha)?
A: 0%

Q: And the TRZAW % damage ([1]; in vivo)?
A: 0%

Q: And the PHACA % control ([3]; Table 3, 375 g of a.i./ha)?
A: 0%

Q: And the PHACA % control ([3]; Table 3, 750 g of a.i./ha)?
A: 0%

Q: And the PHACA % control ([3]; Table 3, 1500 g of a.i./ha)?
A: 50%

Q: With `COc1cc(OC)nc(NC(=O)NS(=O)(=O)c2ncccc2C(=O)N(C)C)n1` [B13), 1-(4,6-dimethoxypyrimidin-2-yl)-3-(3-dimethylcarbamoyl-2-pyridylsulfonyl)urea] as the molecule, how does the ZEAMA % damage ([8]; 15 g of a.i./ha) read?
A: 0%

Q: What about the ZEAMA % damage ([8]; 30 g of a.i./ha) of the same molecule?
A: 0%

Q: What about the ZEAMA % damage ([8]; 60 g of a.i./ha) of the same molecule?
A: 2%

Q: And the ECHCR % control ([9]; 15 g of a.i./ha)?
A: 0%

Q: And the ECHCR % control ([9]; 30 g of a.i./ha)?
A: 73%

Q: What about the ECHCR % control ([9]; 60 g of a.i./ha) of the same molecule?
A: 75%

Q: How did the ECHCR % control ([9]; 5 g of a.i./ha) turn out when `CCS(=O)(=O)c1cccnc1S(=O)(=O)NC(=O)Nc1nc(OC)cc(OC)n1` [B14), 1-(4,6-dimethoxypyrimidin-2-yl)-3-(3-ethylsulfonyl-2-pyridylsulfonyl) urea] was run?
A: 15%

Q: And the ECHCR % control ([9]; 10 g of a.i./ha)?
A: 60%

Q: And the ECHCR % control ([9]; 20 g of a.i./ha)?
A: 85%

Q: Which SECCW % damage ([10]; 600 g of a.i./ha) does the source give for `Cc1cc(Cl)ccc1O[C@H](C)C(=O)O` [B16), (R)-2-(4-chloro-o-tolyloxy)propionic acid] here?
A: 0%

Q: What about the SECCW % damage ([10]; 2500 g of a.i./ha) of the same molecule?
A: 0%

Q: What about the FALCO % control ([11]; 125 g of a.i./ha) of the same molecule?
A: 0%

Q: What about the FALCO % control ([11]; 250 g of a.i./ha) of the same molecule?
A: 15%

Q: What about the FALCO % control ([11]; 500 g of a.i./ha) of the same molecule?
A: 55%

Q: And the FALCO % control ([11]; 1000 g of a.i./ha)?
A: 68%

Q: What about the TRZAW % damage ([1]; Table 5, 125 g of a.i./ha) of the same molecule?
A: 0%

Q: What about the TRZAW % damage ([1]; Table 5, 250 g of a.i./ha) of the same molecule?
A: 0%

Q: And the TRZAW % damage ([1]; Table 5, 500 g of a.i./ha)?
A: 0%

Q: What about the TRZAW % damage ([1]; Table 5, 1000 g of a.i./ha) of the same molecule?
A: 0%

Q: What about the CENCY % control ([12]; 600 g of a.i./ha) of the same molecule?
A: 30%

Q: And the CENCY % control ([12]; 2500 g of a.i./ha)?
A: 70%

Q: How did the FALCO % control ([11]; 250 g of a.i./ha) turn out when `Cc1cc(Cl)ccc1OCC(=O)O` [B17), (4-chloro-2-methylphenoxy) acetic acid] was run?
A: 0%

Q: And the FALCO % control ([11]; 500 g of a.i./ha)?
A: 68%

Q: What about the FALCO % control ([11]; 1000 g of a.i./ha) of the same molecule?
A: 75%

Q: And the TRZAW % damage ([1]; Table 5, 250 g of a.i./ha)?
A: 0%

Q: What does the source list for `COc1c(Cl)ccc(Cl)c1C(=O)O` [B20), 3,6-dichloro-o-anisic acid]?
A: LOLMU % control ([7]; Table 5, 50 g of a.i./ha): 5%; LOLMU % control ([7]; Table 5, 100 g of a.i./ha): 10%; LOLMU % control ([7]; Table 5, 200 g of a.i./ha): 18%; LOLMU % control ([7]; Table 5, 400 g of a.i./ha): 40%

Q: Which FALCO % control ([11]; 50 g of a.i./ha) does the source give for `Nc1c(Cl)c(F)nc(OCC(=O)O)c1Cl` [B21), 4-amino-3,5-dichloro-6-fluoro-2-pyridyloxyacetic acid] here?
A: 73%

Q: What about the FALCO % control ([11]; 100 g of a.i./ha) of the same molecule?
A: 80%

Q: What about the FALCO % control ([11]; 200 g of a.i./ha) of the same molecule?
A: 95%
